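In this assay, cells in 96-well plates receive the compound at five concentrations for 48 hours. Endpoints are linearly interpolated between the surrounding concentrations. GI50 = concentration required for 50% inhibition of growth. Definition used: TGI = concentration required for complete inhibition of growth.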
Legend:
Assay in all cases: NCI anticancer screen, dose series, 48 h
NCI-H23 lung = system: NCI-H23 lung
MOLT-4 leukemia = system: MOLT-4 leukemia
NCI/ADR-RES ovarian = system: NCI/ADR-RES ovarian
RXF 393 renal = system: RXF 393 renal
UACC-62 melanoma = system: UACC-62 melanoma
SNB-75 CNS = system: SNB-75 CNS
BT-549 breast = system: BT-549 breast
IGROV1 ovarian = system: IGROV1 ovarian
HOP-92 NSCLC = system: HOP-92 NSCLC
MDA-MB-468 breast = system: MDA-MB-468 breast
MDA-MB-231 breast = system: MDA-MB-231 breast
EKVX NSCLC = system: EKVX NSCLC
PC-3 prostate = system: PC-3 prostate
SK-MEL-5 melanoma = system: SK-MEL-5 melanoma
HCC-2998 colon = system: HCC-2998 colon
HL-60(TB) leukemia = system: HL-60(TB) leukemia
UACC-257 melanoma = system: UACC-257 melanoma
MALME-3M melanoma = system: MALME-3M melanoma
U251 CNS = system: U251 CNS
SNB-19 CNS = system: SNB-19 CNS
786-0 renal = system: 786-0 renal
A498 renal = system: A498 renal
UO-31 renal = system: UO-31 renal
SW-620 colon = system: SW-620 colon
SK-MEL-2 melanoma = system: SK-MEL-2 melanoma
CAKI-1 renal = system: CAKI-1 renal
COLO 205 colon = system: COLO 205 colon
HOP-62 NSCLC = system: HOP-62 NSCLC
SK-MEL-28 melanoma = system: SK-MEL-28 melanoma
HT29 colon = system: HT29 colon
A549 NSCLC = system: A549 NSCLC
SN12C renal = system: SN12C renal
MCF7 breast = system: MCF7 breast
HCT-15 colon = system: HCT-15 colon
ACHN renal = system: ACHN renal
SF-268 CNS = system: SF-268 CNS
OVCAR-3 ovarian = system: OVCAR-3 ovarian
SK-OV-3 ovarian = system: SK-OV-3 ovarian
KM12 colon = system: KM12 colon
TK-10 renal = system: TK-10 renal
K-562 leukemia = system: K-562 leukemia
OVCAR-5 ovarian = system: OVCAR-5 ovarian
T-47D breast = system: T-47D breast
LOX IMVI melanoma = system: LOX IMVI melanoma
HCT-116 colon = system: HCT-116 colon
SF-295 CNS = system: SF-295 CNS
NCI-H460 lung = system: NCI-H460 lung
OVCAR-8 ovarian = system: OVCAR-8 ovarian
RPMI-8226 leukemia = system: RPMI-8226 leukemia
SF-539 CNS = system: SF-539 CNS
MDA-MB-435 = system: MDA-MB-435
NCI-H226 lung = system: NCI-H226 lung
SR leukemia = system: SR leukemia
CCRF-CEM leukemia = system: CCRF-CEM leukemia
OVCAR-4 ovarian = system: OVCAR-4 ovarian
M14 melanoma = system: M14 melanoma
DU-145 prostate = system: DU-145 prostate

COc1cc2c(cc1OC)/C(=C\c1sc(Nc3ccc(O)cc3)nc1O)C(C(=O)O)=N2
GI50 (NCI-H23 lung): 815 nM | TGI (NCI-H23 lung): 41800 nM | GI50 (MOLT-4 leukemia): 446 nM | TGI (MOLT-4 leukemia): > 100000 nM | GI50 (NCI/ADR-RES ovarian): > 100000 nM | TGI (NCI/ADR-RES ovarian): > 100000 nM | GI50 (RXF 393 renal): 527 nM | TGI (RXF 393 renal): 3210 nM | GI50 (UACC-62 melanoma): 498 nM | TGI (UACC-62 melanoma): > 100000 nM | GI50 (SNB-75 CNS): 217 nM | TGI (SNB-75 CNS): 2950 nM | GI50 (BT-549 breast): 654 nM | TGI (BT-549 breast): 75000 nM | GI50 (IGROV1 ovarian): 2700 nM | TGI (IGROV1 ovarian): > 100000 nM | GI50 (HOP-92 NSCLC): 5890 nM | TGI (HOP-92 NSCLC): 91600 nM | GI50 (MDA-MB-468 breast): 1120 nM | TGI (MDA-MB-468 breast): 5290 nM | GI50 (MDA-MB-231 breast): 1320 nM | TGI (MDA-MB-231 breast): 63300 nM | GI50 (EKVX NSCLC): 11200 nM | TGI (EKVX NSCLC): > 100000 nM | GI50 (PC-3 prostate): 666 nM | TGI (PC-3 prostate): > 100000 nM | GI50 (SK-MEL-5 melanoma): 510 nM | TGI (SK-MEL-5 melanoma): 28400 nM | GI50 (HCC-2998 colon): 631 nM | TGI (HCC-2998 colon): > 100000 nM | GI50 (HL-60(TB) leukemia): 291 nM | TGI (HL-60(TB) leukemia): 986 nM | GI50 (UACC-257 melanoma): 1910 nM | TGI (UACC-257 melanoma): > 100000 nM | GI50 (MALME-3M melanoma): 336 nM | TGI (MALME-3M melanoma): > 100000 nM | GI50 (U251 CNS): 353 nM | TGI (U251 CNS): 16700 nM | GI50 (SNB-19 CNS): 462 nM | TGI (SNB-19 CNS): 27800 nM | GI50 (786-0 renal): 513 nM | TGI (786-0 renal): 45100 nM | GI50 (A498 renal): 32100 nM | TGI (A498 renal): > 100000 nM | GI50 (UO-31 renal): 4200 nM | TGI (UO-31 renal): > 100000 nM | GI50 (SW-620 colon): 449 nM | TGI (SW-620 colon): > 100000 nM | GI50 (SK-MEL-2 melanoma): 586 nM | TGI (SK-MEL-2 melanoma): 86300 nM | GI50 (CAKI-1 renal): 95500 nM | TGI (CAKI-1 renal): > 100000 nM | GI50 (COLO 205 colon): 1440 nM | TGI (COLO 205 colon): 9070 nM | GI50 (HOP-62 NSCLC): 620 nM | TGI (HOP-62 NSCLC): 59100 nM | GI50 (SK-MEL-28 melanoma): 842 nM | TGI (SK-MEL-28 melanoma): > 100000 nM | GI50 (HT29 colon): 2830 nM | TGI (HT29 colon): 26000 nM | GI50 (A549 NSCLC): 21600 nM | TGI (A549 NSCLC): > 100000 nM | GI50 (SN12C renal): 2050 nM | TGI (SN12C renal): > 100000 nM | GI50 (MCF7 breast): 394 nM | TGI (MCF7 breast): > 100000 nM | GI50 (HCT-15 colon): 783 nM | TGI (HCT-15 colon): > 100000 nM | GI50 (ACHN renal): 6530 nM | TGI (ACHN renal): > 100000 nM | GI50 (SF-268 CNS): 581 nM | TGI (SF-268 CNS): > 100000 nM | GI50 (OVCAR-3 ovarian): 287 nM | TGI (OVCAR-3 ovarian): 797 nM | GI50 (SK-OV-3 ovarian): 817 nM | TGI (SK-OV-3 ovarian): > 100000 nM | GI50 (KM12 colon): 557 nM | TGI (KM12 colon): > 100000 nM | GI50 (TK-10 renal): 5730 nM | TGI (TK-10 renal): > 100000 nM | GI50 (K-562 leukemia): 369 nM | TGI (K-562 leukemia): > 100000 nM | GI50 (OVCAR-5 ovarian): 4510 nM | TGI (OVCAR-5 ovarian): > 100000 nM | GI50 (T-47D breast): 2910 nM | TGI (T-47D breast): > 100000 nM | GI50 (LOX IMVI melanoma): 501 nM | TGI (LOX IMVI melanoma): > 100000 nM | GI50 (HCT-116 colon): 489 nM | TGI (HCT-116 colon): > 100000 nM | GI50 (SF-295 CNS): 498 nM | TGI (SF-295 CNS): 14100 nM | GI50 (NCI-H460 lung): 954 nM | TGI (NCI-H460 lung): > 100000 nM | GI50 (OVCAR-8 ovarian): 775 nM | TGI (OVCAR-8 ovarian): > 100000 nM | GI50 (RPMI-8226 leukemia): 5170 nM | TGI (RPMI-8226 leukemia): > 100000 nM | GI50 (SF-539 CNS): 456 nM | TGI (SF-539 CNS): 2760 nM | GI50 (MDA-MB-435): 187 nM | TGI (MDA-MB-435): 389 nM | GI50 (NCI-H226 lung): 16600 nM | TGI (NCI-H226 lung): > 100000 nM | GI50 (SR leukemia): 277 nM | TGI (SR leukemia): > 100000 nM | GI50 (CCRF-CEM leukemia): 413 nM | TGI (CCRF-CEM leukemia): > 100000 nM | GI50 (OVCAR-4 ovarian): 4570 nM | TGI (OVCAR-4 ovarian): > 100000 nM | GI50 (M14 melanoma): 376 nM | TGI (M14 melanoma): 30000 nM | GI50 (DU-145 prostate): 588 nM | TGI (DU-145 prostate): 33300 nM

Reference: PubChem BioAssay (NCI)
